Assay results: ChEMBL document CHEMBL1141828, “Artoindonesianins A and B, two new prenylated flavones from the root of Artocarpus champeden” (J Nat Prod, 1999)
≈ marks a conversion by molar mass, not a printed value.

Tested on: P388
Experiment: Cytotoxicity against mouse P388 cells by microculture tetrazolium assay
Type: functional, cell-based

Structure (SMILES)	IC50 [µg/mL]
CC(C)=CCC/C(C)=C/Cc1c2c(c(O)c3c(=O)c4c(oc13)-c1c(O)cc(O)c3c1C(C4)C(C)(C)O3)C=CC(C)(C)O2 (configuration not stated) [ARTOINDONESIANIN A]	21 (≈ 36.8 µM)
COc1cc2oc3c(c(=O)c2c(O)c1/C=C/C(C)C)CC(C(C)(C)OO)Oc1cc(O)ccc1-3 (configuration not stated) [ARTOINDONESIANIN B]	3.9 (≈ 8.32 µM)
